Assay results reported in patent US20110086870A1, “Combination Therapy” (AstraZeneca AB, priority 2003, published 2011).

Columns and labels:
[1] = tested on: human LS-174T colon tumour xenografts; assay: Human LS-174T colon tumour xenografts in Nude mice, test (a) 5-FU+ZD6474; assay type: in vivo; details: for Inhibition of Control Tumour Growth at day 13 / Regressions: number of tumours which had regressed by ≧10% in volume by day 13, compared with pre-treatment volume on day 0: ZD6474 25 mg/kg/day p.o. d 0-13, 5-FU 75 mg/kg i.v. d 0 and 7; for Inhibition of Control Tumour Growth at day 13: versus vehicle control; for Regressions: number of tumours which had regressed by ≧10% in volume by day 13, compared with pre-treatment volume on day 0: regressed tumours/tumours in group; for tumour regressions: share of tumours regressed by day 13, same doses as the table
Method: 10^7 LS-174T tumour cells in 0.2 ml of serum free Roswell Park Memorial Institute (RPMI)-1640 medium were injected subcutaneously (s.c.) into the flanks of 10 athymic (nu/nu genotype) mice. When tumour sizes reached 700-1000 mm^3 (3-4 weeks), tumours were surgically excised and smaller tumour fragments thereof (20-30 mg) were implanted s.c. in the right flank of 120 Nude mice. When tumours reached a volume of 100 to 200 mm^3 (14-16 days after the graft), mice were randomized into groups (13-15 per group) and treatment started.
• The control group (Group 1) received a daily oral (p.o.) administration of ZD6474 vehicle for 14 consecutive days (day 0-13) combined with two intravenous (i.v.) injections of saline (the vehicle for 5-FU) on day 0 and 7. • For Group 2, the treatments consisted of a daily p.o. administration of ZD6474 alone at 25 mg/kg/administration for 14 consecutive days (day 0-13) combined with two i.v. injections of saline (the vehicle for 5-FU) on day 0 and 7. ZD6474 was prepared as a suspension in 1% polysorbate 80 (i.e. a 1% (v/v) solution of polyoxyethylene (20) sorbitan mono-oleate in deionised water). • Group 3 received two i.v. injections of 5-FU at 75 mg/kg/injection, on day 0 and 7, combined with a daily p.o. administration of ZD6474 vehicle for 14 consecutive days (day 0-13). • Group 4 received daily p.o. administration of ZD6474 at 25 mg/kg/administration for 14 consecutive days (day 0-13) combined with two i.v. injections of 5-FU at 75 mg/kg/injection, on day 0 and 7.
The administration volume of ZD6474 was 10.0 ml/kg (200 μl for a 20 g mouse). The injection volume of 5-FU was 10.0 ml/kg (200 μl for a 20 g mouse).
Tumor volumes (mm^3) were assessed at least twice weekly by bilateral Vernier caliper measurement and, taking length to be the longest diameter across the tumor and width the corresponding perpendicular, calculated using the formula (π/6)×(length×width)×the square root of (length×width). Growth inhibition from the start of treatment was assessed by comparison of the differences in tumor volume between control and treated groups. For all mice, the study was stopped when tumours reached 2,000 mm^3 For all mice, the tumours were excised and weights recorded upon termination of the study.

[2] = tested on: human LS-174T colon tumour xenografts; assay: Human LS-174T colon tumour xenografts in Nude mice, test (b) CPT-11+ZD6474; assay type: in vivo; details: ZD6474 25 mg/kg/day p.o. d 0-20, CPT-11 20 mg/kg i.v. d 0, 7 and 14
Method: • The control group (Group 1) received a daily oral (p.o.) administration of ZD6474 vehicle for 14 consecutive days (day 0-13) combined with two intravenous (i.v.) injections of saline (the vehicle for CPT-11) on day 0 and 7. […]
Tumor volumes (mm^3) were assessed at least twice weekly by bilateral Vernier caliper measurement and, taking length to be the longest diameter across the tumor and width the corresponding perpendicular, calculated using the formula (π/6)×(length×width)×square root of (length×width). Growth inhibition from the start of treatment was assessed by comparison of the differences in tumor volume between control and treated groups. For all mice, the study was stopped when tumours reached 2,000 mm^3 For all mice, the tumours were excised and weights recorded upon termination of the study.

| Compound | Inhibition of Control Tumour Growth at day 13 [1] [%] | Regressions: number of tumours which had regressed by ≧10% in volume by day 13, compared with pre-treatment volume on day 0 [1] | tumour regressions [1] [%] | mean tumour volume on day 20 [2] [mm^3] |
| --- | --- | --- | --- | --- |
| O=c1[nH]cc(F)c(=O)[nH]1 [5-FU, 5-fluorouracil, reference compound] | 68 | 6/15 | 40 |  |
| COc1cc2c(Nc3ccc(Br)cc3F)ncnc2cc1OCC1CCN(C)CC1 [ZD6474, 4-(4-bromo-2-fluoroanilino)-6-methoxy-7-(1-methylpiperidin-4-ylmethoxy)quinazoline] | 80 | 5/15 | 33 | 475 |
